Series [1] addresses T1, SIRT2 (Homo sapiens, UniProt Q8IXJ6).
T1 sequence (Q8IXJ6 34-356): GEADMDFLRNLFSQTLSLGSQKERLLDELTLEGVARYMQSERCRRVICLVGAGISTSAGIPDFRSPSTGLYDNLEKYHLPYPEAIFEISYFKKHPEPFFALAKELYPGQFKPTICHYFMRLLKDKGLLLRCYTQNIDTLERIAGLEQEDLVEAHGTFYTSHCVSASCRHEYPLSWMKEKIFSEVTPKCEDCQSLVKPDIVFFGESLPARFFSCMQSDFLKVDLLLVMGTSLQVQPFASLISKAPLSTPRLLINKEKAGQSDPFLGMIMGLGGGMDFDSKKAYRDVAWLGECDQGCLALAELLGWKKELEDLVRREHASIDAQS
The note with it: read-out: IC50 for SIRT2 demyristoylase activity; cited from earlier work.

Series [2] addresses T1, SIRT2. Particulars: read-out: Kd for SIRT2 alone; cited from earlier work.
Series [3] addresses SIRT2—decanoyl peptide complex. More on the design: method as in PMID 32941003. The note with it: cited from earlier work.
In series [4] the test system is acetylated alpha-tubulin in A549 cells. Description: Immunofluorescence staining of acetylated alpha-tubulin in A549 cells. Type of series: cell-based, human. The note with it: 25 μM, 6 hours. The method, then: 100,000 A549 or A549 SIRT2-KO cells were seeded on a coverslip that was placed in the well of 6-well plate, and the cells were grown overnight in full DMEM. […] The cells were then washed three times with PBS, fixed with 4% paraformaldehyde for 10 min, then washed again three times with PBS. Cells were incubated with 0.2% Triton X-100 for 15 minutes on a shaker followed by three more PBS washes. The cells were then blocked with 2% BSA in PBS for 1 hour at room temperature. […] Slides were imaged using a Keyence BZ-X710 fluorescence microscope with the following filter settings: DAPI, excitation/emission was 300–400 nm/438-484 nm; Alexa Fluor 488, excitation/emission was 448 nm/500-550 nm. All images were obtained under identical conditions, and fluorescence intensities were quantified using Fiji/ImageJ without any manipulation to the images. The fluorescence intensity from at least six cells per coverslip were randomly selected and measured targeting the cytosol (for measuring acetylated alpha-tubulin levels via Alexa Fluor 488) or the nucleus (for measuring nuclear DNA staining via DAPI). Relative fluorescence intensity was calculated as the ratio of Alexa Fluor 488/DAPI intensities. […]

Series [5] concerns acetylated alpha-tubulin in A549 SIRT2-KO cells. Description: Immunofluorescence staining of acetylated alpha-tubulin in A549 SIRT2-KO cells. The series is classed as cell-based, human. Particulars: 25 μM, 6 hours.
Another series relates to A549 cells. Description: Cell viability MTT assay. The series is classed as cell-based, human. Particulars: 72 hours treatment, concentrations shown in Fig 4F and 4G. The method, then:
5,000 A549 cells were seeded in a 96-well plate in full DMEM. The total volume in each well was 150 μl, and the DMSO concentration was 0.7%. After this treatment period, 10 μl of MTT reagent was added to each well, then the cells were cultured for 4 hour before adding 100 μl of crystal dissolving solution for another 16 hour incubation (Cayman Chemical, catalog #10009365). The absorbance in each well was measured at 570 nm and was used to determine the cell viability by comparing the absorbance of drug treated cells to control (DMSO treated) cells.
On the technique in general: Tetrazolium assays rely on reduction of a dye to a coloured formazan, in cell work by metabolically active cells.

The target in series [6] is T1, SIRT2. Description: 1-aminoanthracene binding competition assay, SIRT2 alone. The method, then:
Competition assays where 1-aminoanthracene was displaced from SIRT2 by 2, 4, 5, and 6 were performed as previously reported where we described its displacement from SIRT2 by 3. The assays were also cuvette-based and performed at 23°C in PBS with 1 mM DTT, and the final DMSO concentration was 0.6%. Briefly, the fluorescence intensity of 100 nM 1-aminoanthracene was measured in the presence of 4 μM SIRT2 and increasing amounts of ligand using excitation/emission wavelengths of 390 nm/520 nm. As previously described, displacement of 1-aminoanthracene from SIRT2 by a competitor results in a reduction of its fluorescence.
We determined and report absolute IC50 values from the curves which reflect ligand concentrations that reduce the fluorescence by 50% compared to control (no ligand) samples.

Series [7] addresses T1, SIRT2. Nature of the series: SIRT2 deacetylase activity assay (MALDI-MS, acetyl-H4K16 peptide). The series is classed as biochemical. Particulars: for Deacetylase IC50: 4 μM acetyl-H4K16, 1 mM NAD+, 37°C, absolute IC50, "no effect" = 200 μM compound did not significantly affect SIRT2 activity. The method, then: (§1) The enzymatic activity of SIRT2 was measured using a MALDI-MS—based protocol reported previously. Reactions were performed at 37°C for 2.5 min in PBS containing 1 mM DTT and 1 mM of NAD^+. Acylated H4K16 peptides were used as the substrates at the following concentrations: acetyl-H4K16, 4 μM; decanoyl-H4K16, 0.2 μM; dodecanoyl-H4K16, 0.5 μM; myristoyl-H4K16, 0.5 μM. These concentrations correspond to the enzyme’s Km for each substrate under saturating NAD^+ conditions. The enzyme concentration in each reaction was chosen such that 20% or less of the substrate was processed by the enzyme when the reactions were quenched. In dose-response assays showing a reduction in SIRT2 activity by increasing amounts of ligand, the data was fit with standard sigmoidal dose-response curves as we previously described. We report absolute IC50 values from the curves which reflect ligand concentrations that reduce the activity of the enzyme by 50% compared to control (no ligand) samples. Assays measuring the effects of ligand on SIRT1 deacetylase and SIRT6 demyristoylase activities were performed similarly, as previously described.

The target in series [8] is T1, SIRT2. Nature of the series: SIRT2 demyristoylase activity assay (MALDI-MS, myristoyl-H4K16 peptide). Type of series: biochemical. Particulars: for Demyristoylase IC50: 0.5 μM myristoyl-H4K16, 1 mM NAD+, 37°C, absolute IC50, "no effect" = 200 μM compound did not significantly affect SIRT2 activity. The method, then: as §1
Series [9] deals with T1, SIRT2. Nature of the series: SIRT2 binding competition assay using Cy3-myristoyl-H4K16 peptide. The note with it: concentrations as high as 100 μM. The protocol:
Competition assays where Cy3-myristoyl-H4K16 peptide was displaced from SIRT2 by 1 were performed as previously described. Assays were performed in PBS with 1 mM DTT at 23°C in a quartz microcuvette (160 μl assay volume). Briefly, the fluorescence intensity of 50 nM Cy3-myristoyl-H4K16 peptide was measured in the presence of 2.5 μM SIRT2 and increasing amounts of 1 using excitation/emission wavelengths of 535 nm/560 nm. The final DMSO concentration in each measurement was 0.6%. As previously described, displacement of Cy3-myristoyl-H4K16 peptide from SIRT2 by a competitive ligand results in a reduction of its fluorescence.
The data from both competition assays show a reduction in probe fluorescence at increasing concentrations of competitor ligands. […] We determined and report absolute IC50 values from the curves which reflect ligand concentrations that reduce the fluorescence by 50% compared to control (no ligand) samples.

Series [10] concerns the target T2, SIRT2 catalytic domain (human, amino acids 34-356), 6xHis-SUMO tag removed (human, UniProt Q8IXJ6 34-356).
T2 construct: human SIRT2 catalytic domain, amino acids 34-356; also called sirtuin-2; source: tag removed, chromatographically purified; not shown: His6, N-terminal, cleaved; SUMO, N-terminal, cleaved
T2 sequence (looked up): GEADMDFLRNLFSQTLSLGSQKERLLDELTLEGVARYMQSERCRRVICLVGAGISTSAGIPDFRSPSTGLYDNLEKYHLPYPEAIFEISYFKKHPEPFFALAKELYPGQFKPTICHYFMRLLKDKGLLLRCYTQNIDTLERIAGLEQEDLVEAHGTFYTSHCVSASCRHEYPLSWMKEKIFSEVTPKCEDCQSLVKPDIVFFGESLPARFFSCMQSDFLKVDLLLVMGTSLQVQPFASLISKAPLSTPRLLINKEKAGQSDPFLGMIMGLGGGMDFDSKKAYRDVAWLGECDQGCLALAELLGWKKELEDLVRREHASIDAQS
Nature of the series: ITC; PBS, 25°C; 20 uM SIRT2 in the cell, 200 uM peptide in the syringe; one site binding model. The note with it: both partners purified. (In general: Isothermal titration calorimetry measures the heat released or taken up as one component is titrated into another.)

Series [11] deals with T3, 6xHis-SUMO-SIRT2 (human SIRT2 catalytic domain, amino acids 34-356, with N-terminal 6xHis-SUMO tag) (human, UniProt Q8IXJ6 34-356).
T3 construct: human SIRT2 catalytic domain, amino acids 34-356; Used in the HTRF assays; held near the FRET donor by a terbium cryptate-labeled anti-6xHis antibody (a tool); also called His tagged-SIRT2; sirtuin-2; not shown: His6, N-terminal, kept; SUMO, N-terminal, kept
T3 sequence (looked up): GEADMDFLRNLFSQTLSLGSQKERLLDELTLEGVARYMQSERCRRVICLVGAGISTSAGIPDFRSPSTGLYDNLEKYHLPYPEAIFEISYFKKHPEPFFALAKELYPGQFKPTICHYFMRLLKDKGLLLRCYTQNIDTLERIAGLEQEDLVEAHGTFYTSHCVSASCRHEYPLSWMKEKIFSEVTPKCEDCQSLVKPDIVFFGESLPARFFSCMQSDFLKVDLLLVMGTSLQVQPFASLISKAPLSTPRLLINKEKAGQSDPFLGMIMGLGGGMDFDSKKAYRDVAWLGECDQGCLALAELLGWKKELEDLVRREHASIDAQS
Nature of the series: AlphaScreen or HTRF; competition; 3 nM SIRT2, 0.2 nM terbium cryptate-labeled antibody, 3 nM FAM-myristoyl-H4K16 peptide, 10 ul/well; unlabeled myristoyl-H4K16 peptide as competitor. The note with it: both partners purified. (In general: In Alpha technology, singlet oxygen from a donor bead excites a nearby acceptor bead.)

For series [12], the target named is T3, 6xHis-SUMO-SIRT2 (human SIRT2 catalytic …). Description: AlphaScreen or HTRF; direct binding; 6xHis-SUMO-SIRT2 and FAM-myristoyl-H4K16 peptide 0-10 nM each, 0.2 nM anti-6xHis terbium cryptate-labeled antibody as FRET donor; 384-well plates, room temperature, 10 mM Hepes-NaOH pH 7.4, 150 mM NaCl, 5 mM DTT, 0.005% Tween-20; apparent Kd. Particulars: both partners purified.

Entries after “also recorded” stand apart in the source; their conditions may differ. Like-named read-outs stand apart in the source and are kept apart here. Primed or numbered codes have the meaning given here. Ends that are not written are not given here. * marks the point of attachment. Myristoyl = CCCCCCCCCCCCCC(=O)*; PEG4′ = PEG4 linker; FAM = fluorescein

As for `Nc1cccc2cc3ccccc3cc12` [1-aminoanthracene], the IC50 at SIRT2 [1] is 21 µM. Besides, the Kd was 37 µM on SIRT2 [2] and 4 µM in series [3].
As to `Cc1cc(C)nc(SCC(=O)Nc2ncc(Cc3cccc4ccccc34)s2)n1` [SirReal2, reference compound], the “level of acetylated alpha-tubulin (immunofluorescence)” value in series [4] is given as “increased acetylated alpha-tubulin to similar levels as 1; also recorded: enhanced fluorescence”; in series [5] it was “no effect”. In the series with A549 cells, the “viability / toxicity in A549 cells (MTT)” value is “did not cause toxicity; also recorded: no effect”.
On SIRT2 [6], `Cc1ccc(C(C)C)c(O)c1` [compound 4, 2-isopropyl-5-methylphenol] gave a half-inhibitory concentration (IC50) of 128 µM and a Kd of 116 µM.
`CCCCCc1ccc(C)cc1O` [compound 6, 5-methyl-2-pentylphenol] registered an IC50 at SIRT2 [6] (SIRT2 only, 100 nM 1-aminoanthracene, 4 μM SIRT2) of 81 µM. For the same molecule, the Kd on SIRT2 [6] (read-out: SIRT2 Kd) is 73 µM.
Turning to `FC(F)(F)C1(c2ccccc2)N=N1` [compound 8, 3-phenyl-3-(trifluoromethyl)-3H-diazirine], the IC50 against SIRT2 [7] was found to be 114 µM. Also, the “Demyristoylase IC50” value at SIRT2 [8] is “no effect”.
As for `Oc1c(F)cc(Br)cc1I` [compound 9, 4-bromo-2-fluoro-6-iodophenol], the “Deacetylase IC50” value on SIRT2 [7] is given as “no effect”. The “Demyristoylase IC50” value at SIRT2 [8] was “no effect”.
On to `Oc1c(I)cc(Br)cc1I` [compound 10, 4-bromo-2,6-diiodophenol], for which the “Deacetylase IC50” value on SIRT2 [7] is “no effect”. Further, the “Demyristoylase IC50” value on SIRT2 [8] is given as “no effect”.
Take `Oc1ccc(Br)cc1C(F)(F)F` [compound 11, 4-bromo-2-(trifluoromethyl)phenol]: at SIRT2 [7], the “Deacetylase IC50” value is on record as “no effect”. Moreover, the “Demyristoylase IC50” value at SIRT2 [8] is “no effect”.
As for `Oc1c(F)cc(Br)cc1F` [compound 12, 4-bromo-2,6-difluorophenol], the “Deacetylase IC50” value on SIRT2 [7] is on record as “no effect”. In addition, the “Demyristoylase IC50” value at SIRT2 [8] is on record as “no effect”.
Consider `CCCCOc1cc(F)c(O)c(F)c1` [compound 13, 4-butoxy-2,6-difluorophenol], for which, on SIRT2 [7], the “Deacetylase IC50” value is “no effect”. The “Demyristoylase IC50” value at SIRT2 [8] was “no effect”.
For the molecule `Oc1cc(C(F)(F)F)ccc1F` [compound 14, 2-fluoro-5-(trifluoromethyl)phenol], on SIRT2 [7], the “Deacetylase IC50” value is reported as “no effect”. In addition, the “Demyristoylase IC50” value on SIRT2 [8] is “no effect”.
Consider `O=C1CSc2nc3ccccc3n21` [compound 15, [1, 3]thiazolo[3,2-a]benzimidazole-3(2H)-one], for which the “displacement of Cy3-myristoyl-H4K16 peptide from SIRT2 / interaction with SIRT2” value on SIRT2 [9] was “too weak to measure a Kd; also recorded: did not efficiently displace”. Besides, the “displacement of 1-aminoanthracene from SIRT2” value on SIRT2 [6] (concentrations as high as 100 μM) is “did not efficiently displace”. Moreover, the “Deacetylase IC50” value on SIRT2 [7] was “not effective; also recorded: no effect”. The molecule also had an IC50 against SIRT2 [8] of 117 µM.
Consider `Cc1ccc(C(=O)Nc2ccc(S(=O)(=O)O)c3cc(S(=O)(=O)O)cc(S(=O)(=O)O)c23)cc1NC(=O)c1cccc(NC(=O)Nc2cccc(C(=O)Nc3cc(C(=O)Nc4ccc(S(=O)(=O)O)c5cc(S(=O)(=O)O)cc(S(=O)(=O)O)c45)ccc3C)c2)c1` [suramin], for which the IC50 at SIRT2 [1] is 95 µM.
With KGLGKGGAK(Myristoyl)RHRK, in [10], the Kd came out at 0.013 µM. This molecule showed a concentration for half-maximal inhibition (IC50) in series [11] of 0.002 µM.
{FAM-PEG4′}-KGLGKGGAK(Myristoyl)RHRK: in series [12], the Kd was roughly 0.001 µM.

In general, IC50 refers to the point on the concentration scale where inhibition reaches its midpoint.

The values above are taken from publication PMC11195995, “A homogeneous time-resolved fluorescence screen to identify SIRT2 deacetylase and defatty-acylase inhibitors” (PLOS ONE, 2024).
